Results taken from patent publication US6734182B2, “Aryl sulfonamides and sulfamide derivatives and uses thereof” (Synaptic Pharmaceutical Corporation, priority 1995, dated 2004).

Key:
5HT1a = 5HT1a (Homo sapiens, UniProt P08908); assay: Binding to cloned human 5HT1a receptor
[1] = tested on: NPY-induced feeding behavior in satiated rats; assay: NPY-induced food intake in satiated rats; assay type: in vivo, rat; conditions: compound 30 mg/kg i.p., then 300 pmole NPY i.c.v., 4 hours after NPY, in g (unit assumed)
Experimental: For these determinations food intake maybe measured in normal satiated rats after intracerebroventricular application (i.c.v.) of NPY in the presence or absence of the test compound. Male Sprague Dawley rats ciba-Geigy AG, Sisseln, Switzerland weighing between 180 g and 220 g are used for all experiments. The rats are individually housed in stainless steel cages and maintained on an 11:13 h light-dark cycle (lights off at 18:00 h) at a controlled temperature of 21-23° C. at all times. Water and food (NAFAG lab chow pellets, NAFAG, Gossau, Switzerland) are available ad libidum.
Rats under pentobarbital anesthesia are stereotaxically implanted with a stainless steel guide cannula targeted at the right lateral ventricle. Stereotaxic coordinates, with the incisor bar set −2.0 mm below interaural line, are: −0.8 mm anterior and +1.3 mm lateral to bregma. The guide cannula is placed on the dura. […]
Food intake may be measured by placing preweighed pellets into the cages at the time of NPY injection. […] The food intake of animals treated with test compound may be calculated as a percentage of the food intake of control animals, i.e., animals treated with vehicle. Alternatively, food intake for a group of animals subjected to the same experimental condition may be expressed as the mean ±S.E.M. Statistical analysis is performed by analysis of variance using the Student-Newman-Keuls test. […]

human 5HT1F receptor = target: T1, human 5HT1F receptor (Homo sapiens, UniProt P30939); assay: Binding to human 5HT1F receptor ([3H]serotonin); conditions: cloned human receptor
T1 construct: expressed in transfected cells
T1 sequence (P30939 1-366): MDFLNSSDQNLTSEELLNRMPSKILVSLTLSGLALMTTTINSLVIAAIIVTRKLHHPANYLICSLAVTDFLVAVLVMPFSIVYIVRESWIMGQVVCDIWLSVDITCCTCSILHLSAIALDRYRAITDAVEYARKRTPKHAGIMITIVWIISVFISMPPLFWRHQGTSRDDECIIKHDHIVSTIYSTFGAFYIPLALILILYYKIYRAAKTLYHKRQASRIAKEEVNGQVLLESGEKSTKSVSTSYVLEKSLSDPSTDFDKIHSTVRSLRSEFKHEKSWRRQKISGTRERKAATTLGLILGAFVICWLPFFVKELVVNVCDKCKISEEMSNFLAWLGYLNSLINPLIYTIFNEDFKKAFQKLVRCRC
Experimental: 5HT1Dα, 5HT1Dβ, 5HT1E, 5HT1F Receptors: LM(tk−) clonal cell lines stably transfected with the genes encoding each of these 5HT receptor subtypes were prepared as described above. The cell line for the 5HT1Dα, receptor, designated as Ltk−8-30-84, was deposited on Apr. 17, 1990, and accorded ATCC Accession No. CRL 10421. The cell for the 5HT1Dβ receptor, designated as Ltk−11, was deposited on Apr. 17, 1990, and accorded ATCC Accession No. CRL 10422. The cell line for the 5HT1E receptor, designated 5 HT1E-7, was deposited on Nov. 6, 1991, and accorded ATCC Accession No. CRL 10913. The cell line for the 5HT1F receptor, designated L-5-HT1F, was deposited on Dec. 27, 1991, and accorded ATCC Accession No. ATCC 10957. Membrane preparations comprising these receptors were prepared as described below, and suspended in 50 mM Tris-HCl buffer (pH 7.4 at 37° C.) containing 10 mM MgCl2, 0.2 mM EDTA, 10 μM pargyline, and 0.1% ascorbate. The binding of compounds was determined in competition binding assays by incubation for 30 minutes at 37° C. in the presence of 5 nM [^3H) serotonin. Nonspecific binding was determined in the presence of 10 μM serotonin. The bound radioligand was separated by filtration through GF/B filters using a cell harvester.

human α2C receptor = target: T2, human α2C receptor (Homo sapiens, UniProt P18825); assay: Binding to cloned human α2C adrenergic receptor ([3H]rauwolscine)
T2 construct: expressed in transfected cells
T2 sequence (P18825 whole entry): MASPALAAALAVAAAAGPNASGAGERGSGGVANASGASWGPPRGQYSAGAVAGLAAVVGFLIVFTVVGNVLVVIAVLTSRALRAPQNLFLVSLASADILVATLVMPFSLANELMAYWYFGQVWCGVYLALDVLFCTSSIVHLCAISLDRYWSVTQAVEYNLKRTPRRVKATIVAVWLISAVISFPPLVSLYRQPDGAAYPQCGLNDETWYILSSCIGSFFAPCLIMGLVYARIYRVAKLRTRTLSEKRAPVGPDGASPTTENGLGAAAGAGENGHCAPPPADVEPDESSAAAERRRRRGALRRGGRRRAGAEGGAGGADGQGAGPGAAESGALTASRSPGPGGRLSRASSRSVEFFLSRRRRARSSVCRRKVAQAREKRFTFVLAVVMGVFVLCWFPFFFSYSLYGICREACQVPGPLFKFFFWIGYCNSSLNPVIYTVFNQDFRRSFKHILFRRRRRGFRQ
Experimental: α2 Human Adrenergic Receptors: To determine the binding of compounds to human α2 receptors, LM(tk−) cell lines stably transfected with the genes encoding the α2A, α2B, and α2C receptors were used. […] Cell lysates were prepared as described below (see Radioligand Dinding to Membrane Suspensions), and suspended in 25 mM glycylglycine buffer (pH 7.6 at room temperature). Equilibrium competition binding assay were performed using [^3H]rauwolscine (0.5 nM), and nonspecific binding was determined by incubation with 10 μM phentolamine.

[2] = target: T3, human histamine H2 receptor (Homo sapiens, UniProt P25021); assay: Binding to human histamine H2 receptor ([3H]tiotidine); conditions: cloned human receptor
T3 construct: expressed in transfected cells; host or cells: COS-7 cells, transient (DEAE-dextran), plasmid pcEXV-H2 (ATCC 75345)
T3 sequence (P25021 whole entry): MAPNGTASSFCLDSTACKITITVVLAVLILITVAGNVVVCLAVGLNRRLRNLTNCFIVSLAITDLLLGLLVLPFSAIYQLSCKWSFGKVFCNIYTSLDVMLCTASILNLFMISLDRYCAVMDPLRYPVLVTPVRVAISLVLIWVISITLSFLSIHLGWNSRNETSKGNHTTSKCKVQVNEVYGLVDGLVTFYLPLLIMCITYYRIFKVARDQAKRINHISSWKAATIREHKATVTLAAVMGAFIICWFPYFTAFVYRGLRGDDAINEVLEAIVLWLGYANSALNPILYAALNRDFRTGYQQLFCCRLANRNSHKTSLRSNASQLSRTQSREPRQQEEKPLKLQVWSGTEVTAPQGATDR
Experimental: The binding of the histamine H2 antagonist [^3H]tiotidine (5 nM, specific activity: 70 Ci/mM) was done in a final volume of 0.25 ml and incubated at room temperature for 60 min. Nonspecific binding was determined in the presence of 10 μM histamine.

5HT1a, sequence (P08908 whole entry): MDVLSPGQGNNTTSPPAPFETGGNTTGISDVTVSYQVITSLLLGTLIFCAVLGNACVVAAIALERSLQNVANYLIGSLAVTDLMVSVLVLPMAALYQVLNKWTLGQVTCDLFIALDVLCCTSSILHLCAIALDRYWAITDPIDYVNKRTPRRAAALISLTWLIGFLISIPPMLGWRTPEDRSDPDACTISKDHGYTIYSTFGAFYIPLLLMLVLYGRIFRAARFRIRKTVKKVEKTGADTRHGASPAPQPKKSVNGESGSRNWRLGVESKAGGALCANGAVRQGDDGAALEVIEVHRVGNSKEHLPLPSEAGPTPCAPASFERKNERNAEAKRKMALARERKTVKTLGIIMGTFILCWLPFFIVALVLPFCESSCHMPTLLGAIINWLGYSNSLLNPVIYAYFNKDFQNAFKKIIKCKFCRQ

Row | Compound | Receptor (pKi) 5HT1a (5HT1a) | NPY-induced cumulative food intake (NPY + compound), mean ± S.E.M. [1] | Receptor (pKi) 5HT1F (human 5HT1F receptor) | Receptor (pKi) α2c (human α2C receptor) | Receptor (pKi) H2 [2]
1 | Cl.O=S(=O)(NCC1CCC(CNCC2CCc3ccccc3C2)CC1)c1cccc2ccccc12 (stereo not drawn) [Example 32] | 5.54 | 1.5 ± 0.6 | ≤ 5.30 |  | 
2 | Cl.O=[N+]([O-])c1ccccc1S(=O)(=O)NCC1CCC(CNCC2CCc3ccccc3C2)CC1 (stereo not drawn) [Example 36] |  |  | ≤ 5.30 | 7.39 | 5.85
